Assay results published in a melting point compilation (Tetko et al.; mined from patent text by program, amines drawn as free bases though some values may be those of a salt).

Structure (SMILES)	melting point
CCC(=O)NS(=O)(=O)c1ccc(C2=C(c3ccccc3)C(=O)C(C)(C)O2)cc1Cl	191 to 192 °C
O=C1C(=O)N(CCl)c2ccccc21	121 to 123 °C
CCC1SC(NC)=NN1C(=O)C(C)(C)C (stereo not given)	78.5 to 80 °C
Cc1cccc(-n2nc(C)cc2-c2ccnc(S(C)(=O)=O)c2)c1	140 to 142 °C
CNC(=O)N(O)C(C)c1ccc(Cl)cc1 (stereo not given)	117 to 120 °C
N[C@@]1(C(=O)O)C[C@H](NC(=O)Nc2ccccc2F)[C@H]2[C@H](C(=O)O)[C@H]21 (relative stereo)	> 270 °C
CC(=O)NC(=S)NCC1CC2c3cccc4c3c(cn4C)CC2N(C)C1 (stereo not given)	195 to 197 °C
COc1ccc(C2(C#N)CCC(C(N)=O)CC2)cc1OC1CCCC1 (stereo not given)	100 to 102 °C
Fc1ccc(-c2ccnc(Nc3ccc4c(c3)OCCO4)c2)cc1	134 to 135 °C
COC(=O)C1=C(CCc2ccccc2)NC(CC(=O)N2CCN(CC(=O)N3CCCC3)CC2)=C(C(=O)OC)C1c1c(Cl)cccc1Cl (stereo not given)	180 to 184 °C
O=C(O)c1[nH]c(=O)c2ccc(Cl)cc2c1-c1ccccc1	> 300 °C
CC(c1oc2ccccc2c(=O)c1-c1cccc(F)c1)n1nc(-c2csc(C=O)c2)c2c(N)ncnc21 (stereo not given)	192 to 195 °C
CC(=O)Oc1nc(-c2ccc(C(=O)O)cc2)sc1C	227 to 230 °C
O=c1c2cccc3c2c(cn1C1CN2CCC1CC2)CC3 (racemic)	146 to 147 °C
CC(=O)c1cc(-c2ccc(C)cc2)c(OCc2ccccc2)c(C(C)(C)C)c1	104 °C
CNC(=O)c1c(N)n(C2CCCC2)c2nc(C#CC(C)(O)CO)ccc2c1=O (stereo not given)	210 °C
COC1(c2nc(Sc3ccc(/C(C)=N/O)cc3)cs2)CCOCC1	89 °C
CC(C)CC1(CCCCN2CCc3sccc3C2)C(=O)Nc2ccccc21 (stereo not given)	114 to 116 °C
COc1ccnc(CCc2nc3cc(-c4ccc(S(=O)(=O)N(CCO)CCO)cc4)cnc3[nH]2)c1	127 to 128 °C
COc1ccc(-c2nc(C(O)C(F)(F)F)[nH]c2-c2ccc(OC)cc2)cc1 (stereo not given)	242 to 245 °C
O=C(Sc1ccccn1)c1c(F)c(F)c(F)c(F)c1F	51 °C
COc1ccc(N(C)c2nc(C)nc3oc4c(c23)CCCC4)cc1	147 to 149 °C
COc1cccc(Oc2ccc3ccc(-c4cc(OC)ccc4C(N)=O)nc3n2)c1	150 °C
CCOC(=O)C1COc2cc(C)c(C)cc2O1 (stereo not given)	70 to 71 °C
O=C(O)c1ccc(C(c2ccccc2)c2ccccc2)cn1	189 to 191 °C

Structure (SMILES)	melting point
CN(C(=O)OC(C)(C)C)C1C2CCC1CN(CC(O)COc1ccc(C#N)cc1)C2 (stereo not given)	109 to 112 °C
COc1cccc(CNC(=O)c2nc3scc(CC(=O)Nc4ccc(C(=O)O)cc4)c3c(=O)[nH]2)c1	279 °C
CC(C)(C)c1cc(C(C#N)N2CCCCC2)cc(C(C)(C)C)c1O (stereo not given)	110 to 111 °C
CCCCc1nc2c(N)nc(C)c(C)c2n1CCOc1ccccc1	130 to 132 °C
Cc1cccc(NC(=O)NCC(=O)N2[C@@H](C(=O)N(C)c3ccccc3)CC[C@H]2c2ccccc2)c1 (racemic)	210 °C
CCOC(=O)c1ccc(-c2ncc(Cl)nc2Cl)cc1	88.5 to 90 °C
O=C1NC(=O)C(Cc2ccc(NC(=O)c3sc(Nc4ccccc4)c4c3CCc3cnoc3-4)cc2)S1 (stereo not given)	151 to 152 °C
COC(=O)c1ccc(C#CC(O)c2ccc3c(c2)C(C)(C)CCC3(C)C)cc1O (stereo not given)	92 to 93 °C
COC(=O)c1ccccc1-n1c(CCl)nc2cccc(Cl)c2c1=O	177 to 178 °C
COC(=O)Cc1ccccc1OCc1cc(OCc2nc(-c3ccccc3)sc2C)no1	108 to 109 °C
N#Cc1cc(-n2cnnc2)cc(C(F)(F)F)c1N	283 °C
CC(C)(C)c1cc(-c2ccc(NC(=O)c3ccccc3C(=O)O)cc2)cc(C(C)(C)C)c1O	196 to 198 °C
CC(C)c1nc2c(c(-c3ccc(F)cc3)c1C(C)O)CCC2(C)C (stereo not given)	90 to 92 °C
CNc1nc2ccc(CCc3nc4cc(OC)ccn4c3C)cc2o1	203 to 205 °C
O=c1oc(-c2ccccc2)cc(O)c1C(Sc1ccccc1)c1ccc2ccccc2c1 (stereo not given)	98 to 101 °C
O=CNc1cccc2c1C(=O)c1c-2n[nH]c1-c1ccncc1	> 300 °C
C=C1C=CC2CC1C(Cc1ccc(OC)cc1)NC2=O (stereo not given)	132 to 133 °C
CNC(=O)c1ccc(NC(=O)OC(C)(C)C)cc1	185 °C
CCOC(=O)N1CCC2(CC1)OC(c1ccccc1)c1ccccc12 (stereo not given)	115 to 119 °C
COc1ccc(CCNCC(O)c2ccccc2)cc1OC (stereo not given)	92 to 93 °C
CN1C(=O)C(c2ccc(Cl)cc2)S(=O)C1c1cccnc1 (stereo not given)	149 to 153 °C
COc1ccc(-c2cnc(N3Cc4c([nH]c5ccccc5c4=O)C3C3Cc4ccccc4O3)nc2)cc1 (stereo not given)	301 to 302 °C
COC(=O)CCCc1ccc(C(=O)Cc2ccccc2)cc1	54 to 54.5 °C
CC1(C)OC(c2ccc(S(C)(=O)=O)cc2)=C(c2cc3ccccc3o2)C1=O	140 to 141 °C
Cc1cc2cccc(N=C3SC[C@@H]4Cc5ccccc5CN34)c2cn1	156 °C
